pIC50: −log10 of the molar value. Structures can show the parent of a compound that is named as a salt. A value given as a limit tells only on which side of the number the result lay.

The first experiment deals with T1, ITK (Homo sapiens, UniProt Q08881).
T1 construct: purchased Promega Corporation
T1 sequence (Q08881 1-620): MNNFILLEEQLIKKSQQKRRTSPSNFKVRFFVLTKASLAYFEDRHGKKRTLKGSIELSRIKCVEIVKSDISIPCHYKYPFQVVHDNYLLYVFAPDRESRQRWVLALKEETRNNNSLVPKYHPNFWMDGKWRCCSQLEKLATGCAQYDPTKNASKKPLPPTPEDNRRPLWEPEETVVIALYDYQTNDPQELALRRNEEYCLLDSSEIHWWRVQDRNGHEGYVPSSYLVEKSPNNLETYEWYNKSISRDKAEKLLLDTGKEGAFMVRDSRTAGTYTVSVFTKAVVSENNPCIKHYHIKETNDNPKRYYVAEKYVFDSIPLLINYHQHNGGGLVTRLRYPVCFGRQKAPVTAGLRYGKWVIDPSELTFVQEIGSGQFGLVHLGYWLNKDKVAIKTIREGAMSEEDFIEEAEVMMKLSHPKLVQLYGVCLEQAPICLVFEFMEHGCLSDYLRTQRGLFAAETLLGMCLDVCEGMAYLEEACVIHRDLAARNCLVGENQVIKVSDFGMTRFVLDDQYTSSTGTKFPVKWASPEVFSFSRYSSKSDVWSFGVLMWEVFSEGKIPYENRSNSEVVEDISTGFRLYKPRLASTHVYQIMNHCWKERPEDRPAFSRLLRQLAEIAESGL
Kind of experiment: Inhibitory activity against ITK (ADP-Glo + ITK Kinase enzyme system kit); selectivity BTK vs. ITK. In kind it is biochemical. To be noted: ITK enzyme 0.4 ng/uL, ATP 25 uM, luminescence, duplicate. A general note: ADP-Glo first removes unused ATP, then detects ADP through luciferase.
Broadly, the pIC50 is −log10 of the IC50, conventionally taken in molar units. In the case of `C=CC(=O)N1CC2CC1C(n1nc(-c3ccc(Oc4ccccc4)cc3)c3c(N)ncnc31)C2` (stereo not shown) [Ex. 1, 1-(6-(4-amino-3-(4-phenoxyphenyl)-1H-pyrazolo[3,4-d]pyrimidin-1-yl)-2-azabicyclo[2.2.1]heptan-2-yl)prop-2-en-1-one], the negative-log IC50 (pIC50) was 6.72.

As for `C#CC(=O)N1CC2CC1C(n1nc(-c3ccc(Oc4ccccc4)cc3)c3c(N)ncnc31)C2` (stereo not shown) [Ex. 2, 1-(6-(4-amino-3-(4-phenoxyphenyl)-1H-pyrazolo[3,4-d]pyrimidin-1-yl)-2-azabicyclo[2.2.1]heptan-2-yl)prop-2-yn-1-one], the pIC50 is 7.58.

Still in this experiment, the particulars now being: selectivity for the inhibitory activity of BTK vs. ITK, Equation 1.
With `C=CC(=O)N1CC2CC1C(n1nc(-c3ccc(Oc4ccccc4)cc3)c3c(N)ncnc31)C2` (stereo not shown) [Ex. 1, 1-(6-(4-amino-3-(4-phenoxyphenyl)-1H-pyrazolo[3,4-d]pyrimidin-1-yl)-2-azabicyclo[2.2.1]heptan-2-yl)prop-2-en-1-one], the “Selectivity (based on IC50)” value worked out at 89.9.

As for `C#CC(=O)N1CC2CC1C(n1nc(-c3ccc(Oc4ccccc4)cc3)c3c(N)ncnc31)C2` (stereo not shown) [Ex. 2, 1-(6-(4-amino-3-(4-phenoxyphenyl)-1H-pyrazolo[3,4-d]pyrimidin-1-yl)-2-azabicyclo[2.2.1]heptan-2-yl)prop-2-yn-1-one], the “Selectivity (based on IC50)” value is given as 32.9.

The target in another experiment is BTK (Homo sapiens, UniProt Q06187). Description: Inhibitory activity against BTK (ADP-Glo + BTK Kinase enzyme system kit).
Sequence of BTK (Q06187 whole entry): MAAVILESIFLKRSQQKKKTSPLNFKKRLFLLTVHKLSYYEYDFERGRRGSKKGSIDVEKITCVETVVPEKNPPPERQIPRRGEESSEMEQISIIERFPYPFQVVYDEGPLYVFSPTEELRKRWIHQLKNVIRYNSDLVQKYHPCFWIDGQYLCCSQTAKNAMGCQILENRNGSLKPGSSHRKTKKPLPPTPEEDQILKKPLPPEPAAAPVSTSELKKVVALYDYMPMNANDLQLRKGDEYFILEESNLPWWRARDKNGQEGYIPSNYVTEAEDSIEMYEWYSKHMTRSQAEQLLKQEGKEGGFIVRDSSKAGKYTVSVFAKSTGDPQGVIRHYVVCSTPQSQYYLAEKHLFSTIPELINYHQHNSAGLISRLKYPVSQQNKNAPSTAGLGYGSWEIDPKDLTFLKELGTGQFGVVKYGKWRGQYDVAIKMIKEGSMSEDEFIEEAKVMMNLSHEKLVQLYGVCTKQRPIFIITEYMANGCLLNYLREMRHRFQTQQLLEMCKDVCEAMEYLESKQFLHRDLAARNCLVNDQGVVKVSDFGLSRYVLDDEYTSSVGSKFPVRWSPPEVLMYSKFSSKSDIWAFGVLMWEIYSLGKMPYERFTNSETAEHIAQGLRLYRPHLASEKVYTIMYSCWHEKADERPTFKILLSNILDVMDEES
Conditions: not given
As to `C=CC(=O)N1CC2CC1C(n1nc(-c3ccc(Oc4ccccc4)cc3)c3c(N)ncnc31)C2` (stereo not shown) [Ex. 1, 1-(6-(4-amino-3-(4-phenoxyphenyl)-1H-pyrazolo[3,4-d]pyrimidin-1-yl)-2-azabicyclo[2.2.1]heptan-2-yl)prop-2-en-1-one], the negative logarithm of the IC50 (pIC50) was 8.68.

`C#CC(=O)N1CC2CC1C(n1nc(-c3ccc(Oc4ccccc4)cc3)c3c(N)ncnc31)C2` (stereo not shown) [Ex. 2, 1-(6-(4-amino-3-(4-phenoxyphenyl)-1H-pyrazolo[3,4-d]pyrimidin-1-yl)-2-azabicyclo[2.2.1]heptan-2-yl)prop-2-yn-1-one]: the negative-log IC50 (pIC50) was 9.10.

Turning to `C=CC(=O)N1CC2CC1C(n1nc(-c3ccc(C(=O)Nc4cccc(CC)c4)cc3)c3c(N)ncnc31)C2` (stereo not shown) [Ex. 46, 4-(1-(2-acryloyl-2-azabicyclo[2.2.1]heptan-6-yl)-4-amino-1H-pyrazolo[3,4-d]pyrimidin-3-yl)-N-(3-ethylphenyl)benzamide], the negative logarithm of the IC50 (pIC50) is 7.14.

Regarding `C=CC(=O)N1CC2CC1C(n1nc(-c3ccc(C(=O)Nc4cccc(C(C)C)c4)cc3)c3c(N)ncnc31)C2` (stereo not shown) [Ex. 47, 4-(1-(2-acryloyl-2-azabicyclo[2.2.1]heptan-6-yl)-4-amino-1H-pyrazolo[3,4-d]pyrimidin-3-yl)-N-(3-isopropylphenyl)benzamide], the pIC50 is 7.96.

As for `C=CC(=O)N1CC2CC1C(n1nc(-c3ccc(NC(=O)c4cccc(N(C)C)c4)cc3)c3c(N)ncnc31)C2` (stereo not shown) [Ex. 50, N-(4-(1-(2-acryloyl-2-azabicyclo[2.2.1]heptan-6-yl)-4-amino-1H-pyrazolo[3,4-d]pyrimidin-3-yl)phenyl)-3-(dimethylamino)benzamide], the pIC50 is 7.54.

Turning to `C=CC(=O)N1CC2CC1C(n1nc(-c3ccc(Oc4cccc(N)c4)cc3)c3c(N)ncnc31)C2` (stereo not shown) [Ex. 51, 1-(6-(4-amino-3-(4-(3-aminophenoxy)phenyl)-1H-pyrazolo[3,4-d]pyrimidin-1-yl)-2-azabicyclo[2.2.1]heptan-2-yl)prop-2-en-1-one hydrochloride], the pIC50 was 6.97.

With `C=CC(=O)N1CC2CC1C(n1nc(-c3ccc(C(=O)Nc4ccccc4)cc3F)c3c(N)ncnc31)C2` (stereo not shown) [Ex. 52, 4-(1-(2-acryloyl-2-azabicyclo[2.2.1]heptan-6-yl)-4-amino-1H-pyrazolo[3,4-d]pyrimidin-3-yl)-3-fluoro-N-phenylbenzamide], the negative logarithm of the IC50 (pIC50) is 8.29.

In the case of `C=CC(=O)N1CC2CC1C(n1nc(-c3ccc(C(=O)Nc4ccccc4N(C)C)cc3)c3c(N)ncnc31)C2` (stereo not shown) [Ex. 55, 4-(1-(2-acryloyl-2-azabicyclo[2.2.1]heptan-6-yl)-4-amino-1H-pyrazolo[3,4-d]pyrimidin-3-yl)-N-(2-(dimethylamino)phenyl)benzamide], the pIC50 was 8.07.

With `C=CC(=O)N1CC2CC1C(n1nc(-c3ccc(C(=O)Nc4cnn(C)c4)cc3)c3c(N)ncnc31)C2` (stereo not shown) [Ex. 56, 4-(1-(2-acryloyl-2-azabicyclo[2.2.1]heptan-6-yl)-4-amino-1H-pyrazolo[3,4-d]pyrimidin-3-yl)-N-(1-methyl-1H-pyrazol-4-yl)benzamide], the negative logarithm of the IC50 (pIC50) is 6.85.

For `C=CC(=O)N1CC2CC1C(n1nc(-c3ccc(NC(=O)c4ccccc4N(C)C)cc3)c3c(N)ncnc31)C2` (stereo not shown) [Ex. 57, N-(4-(1-(2-acryloyl-2-azabicyclo[2.2.1]heptan-6-yl)-4-amino-1H-pyrazolo[3,4-d]pyrimidin-3-yl)phenyl)-2-(dimethylamino)benzamide], the negative-log IC50 (pIC50) is 8.06.

In the case of `Nc1ncnc2c1c(-c1ccc(Oc3ccccc3)cc1)nn2C1CC2CC1N(C(=O)/C=C/CN1CCOCC1)C2` (stereo not shown) [Ex. 58, (E)-1-(6-(4-amino-3-(4-phenoxyphenyl)-1H-pyrazolo[3,4-d]pyrimidin-1-yl)-2-azabicyclo[2.2.1]heptan-2-yl)-4-morpholinobut-2-en-1-one], the negative logarithm of the IC50 (pIC50) is 8.28.

`CN(C)C/C=C/C(=O)N1CC2CC1C(n1nc(-c3ccc(C(=O)Nc4ccccn4)cc3)c3c(N)ncnc31)C2` (stereo not shown) [Ex. 60, (E)-4-(4-amino-1-(2-(4-(dimethylamino)but-2-enoyl)-2-azabicyclo[2.2.1]heptan-6-yl)-1H-pyrazolo[3,4-d]pyrimidin-3-yl)-N-(pyridin-2-yl)benzamide]: the pIC50 was 7.44.

For the compound `CN1CCN(C/C=C/C(=O)N2CC3CC2C(n2nc(-c4ccc(C(=O)Nc5ccccn5)cc4)c4c(N)ncnc42)C3)CC1` (stereo not shown) [Ex. 61, (E)-4-(4-amino-1-(2-(4-(4-methylpiperazin-1-yl)but-2-enoyl)-2-azabicyclo[2.2.1]heptan-6-yl)-1H-pyrazolo[3,4-d]pyrimidin-3-yl)-N-(pyridin-2-yl)benzamide], the negative-log IC50 (pIC50) was 6.87.

Turning to `CN1CCN(C/C=C/C(=O)N2CC3CC2C(n2nc(-c4ccc(Oc5ccccc5)cc4)c4c(N)ncnc42)C3)CC1` (stereo not shown) [Ex. 62, (E)-1-(6-(4-amino-3-(4-phenoxyphenyl)-1H-pyrazolo[3,4-d]pyrimidin-1-yl)-2-azabicyclo[2.2.1]heptan-2-yl)-4-(4-methylpiperazin-1-yl)but-2-en-1-one], the pIC50 is 8.24.

`Nc1ncnc2c1c(-c1ccc(Oc3ccccc3)cc1)nn2C1CC2CC1CN2C(=O)/C=C/CBr` (stereo not shown) [Ex. 65, (E)-1-(5-(4-amino-3-(4-phenoxyphenyl)-1H-pyrazolo[3,4-d]pyrimidin-1-yl)-2-azabicyclo[2.2.1]heptan-2-yl)-4-bromobut-2-en-1-one]: the pIC50 was 8.17.

Take `Nc1ncnc2c1c(-c1ccc(Oc3ccccc3)cc1)nn2C1CC2CC1CN2C(=O)/C=C/CN1CCCCC1` (stereo not shown) [Ex. 66, (E)-1-(5-(4-amino-3-(4-phenoxyphenyl)-1H-pyrazolo[3,4-d]pyrimidin-1-yl)-2-azabicyclo[2.2.1]heptan-2-yl)-4-(piperidin-1-yl)but-2-en-1-one]: the pIC50 is 7.30.

As to `C=CC(=O)N1CC2CC1C(n1nc(-c3ccc(C(=O)Nc4cccc(C(F)(F)F)n4)cc3)c3c(N)ncnc31)C2` (stereo not shown) [Ex. 70, 4-(1-(2-acryloyl-2-azabicyclo[2.2.1]heptan-6-yl)-4-amino-1H-pyrazolo[3,4-d]pyrimidin-3-yl)-N-(6-(trifluoromethyl)pyridin-2-yl)benzamide], the negative-log IC50 (pIC50) was 8.20.

Take `C=CC(=O)N1C[C@@H]2C[C@H]1[C@@H](n1nc(-c3ccc(C(=O)Nc4cc(F)ccn4)cc3F)c3c(N)ncnc31)C2` [Ex. 73, 4-(1-((1S,4R,6S)-2-acryloyl-2-azabicyclo[2.2.1]heptan-6-yl)-4-amino-1H-pyrazolo[3,4-d]pyrimidin-3-yl)-3-fluoro-N-(4-fluoropyridin-2-yl)benzamide]: the pIC50 was 8.96.

Take `N#CCC(=O)N1C[C@@H]2C[C@@H]1[C@@H](n1nc(-c3ccc(C(=O)Nc4ccccn4)cc3)c3c(N)ncnc31)C2` [Ex. 74, 4-(4-amino-1-((1R,4R,6S)-2-(2-cyanoacetyl)-2-azabicyclo[2.2.1]heptan-6-yl)-1H-pyrazolo[3,4-d]pyrimidin-3-yl)-N-(pyridin-2-yl)benzamide]: the pIC50 was 6.91.

In the case of `CC(C)C=C(C#N)C(=O)N1C[C@H]2CC(n3nc(-c4ccc(C(=O)Nc5ccccn5)cc4)c4c(N)ncnc43)[C@H]1C2` (stereo partly drawn) [Ex. 76, 4-(4-amino-1-((1R,4R)-2-(2-cyano-4-methylpent-2-enoyl)-2-azabicyclo[2.2.1]heptan-6-yl)-1H-pyrazolo[3,4-d]pyrimidin-3-yl)-N-(pyridin-2-yl)benzamide], the pIC50 is 8.00.

Turning to `C=CC(=O)N1C[C@@H]2C[C@H]1[C@@H](n1nc(-c3ccc(C(=O)Nc4ncccc4C)cc3)c3c(N)ncnc31)C2` [Ex. 77, 4-(1-((1S,4R,6S)-2-acryloyl-2-azabicyclo[2.2.1]heptan-6-yl)-4-amino-1H-pyrazolo[3,4-d]pyrimidin-3-yl)-N-(3-methylpyridin-2-yl)benzamide], the pIC50 was 8.19.

Consider `C=CC(=O)N1C[C@@H]2C[C@H]1[C@@H](n1nc(-c3ccc(C(=O)Nc4ncccc4C(F)(F)F)cc3)c3c(N)ncnc31)C2` [Ex. 78, 4-(1-((1S,4R,6S)-2-acryloyl-2-azabicyclo[2.2.1]heptan-6-yl)-4-amino-1H-pyrazolo[3,4-d]pyrimidin-3-yl)-N-(3-(trifluoromethyl)pyridin-2-yl)benzamide], for which the negative-log IC50 (pIC50) was 8.28.

Take `C=CC(=O)N1C[C@@H]2C[C@H]1[C@@H](n1nc(-c3ccc(C(=O)NC)cc3F)c3c(N)ncnc31)C2` [Ex. 79, 4-(1-((1S,4R,6S)-2-acryloyl-2-azabicyclo[2.2.1]heptan-6-yl)-4-amino-1H-pyrazolo[3,4-d]pyrimidin-3-yl)-3-fluoro-N-methylbenzamide]: the negative-log IC50 (pIC50) is 7.11.

As for `C=C(C)C(=O)N1C[C@@H]2C[C@@H]1[C@@H](n1nc(-c3ccc(C(=O)Nc4ccccn4)cc3)c3c(N)ncnc31)C2` [Ex. 84, 4-(4-amino-1-((1R,4R,6S)-2-methacryloyl-2-azabicyclo[2.2.1]heptan-6-yl)-1H-pyrazolo[3,4-d]pyrimidin-3-yl)-N-(pyridin-2-yl)benzamide], the negative-log IC50 (pIC50) is < 7.00.
